Laboratory results reported in patent US20260007730A1, “HUMAN CTLA-4 PEPTIDE VACCINES AND USES THEREOF” (Ohio State Innovation Foundation, priority 2022, published 2026).
Where no end group is shown, it is not given here. [ ]: non-standard residue; d: D form.

Tests used:
Assay type in all cases: in vivo, BALB/c mice
CT26 tumor cells = experiment: CTLA-4 peptide mimics in CT26-BALB/c tumor model (V32); details: CT26, 200 ug peptide mimic from day 1, Day 14
Procedure: 6-8 weeks old BALB/c mice were challenged with 1×10^5 per mouse CT26 tumor cells (FIG. 6A). After tumor challenge, the positive control group, we treat the mice with anti-mouse CTLA-4 antibody (clone 9H10) twice a week, start from day 1 post tumor challenge and the negative control group was treated with PBS. For the CTLA-4 peptide mimic treatment groups, mice were treated with 200 ug peptide mimics as indicated start from day 1 post tumor challenging. All the mice had been treated at day 1, day 2, day 5, day 7, day 9, day 12, day 14, and day 16 post tumor challenge. The immunogenicity (antibody titer) was under detectable. Tumor volume was calculated as: Tumor volume (LWW)=(Length×Width×Width)/2
Mice challenged with tumor cells were monitored at least twice per week and tumor sizes were measured by calipers. Formula: Volume (LWW)=(Length×Width×Width)/2 was used to calculate tumor volumes. […] Data statistical analysis was performed by GraphPad Prism 8.1.2 (GraphPad Software, Inc. San Diego, CA, USA) and the indicated statistical analysis. One-way analysis of variance (one-way ANOVA) and followed by the Tukey's multiple comparisons test were used to compare data in multiple groups or data between groups in multiple groups. And the two-way ANOVA was used to analysis the whole curves comparison. The Log-rank (Mantel-Cox) test was use to compare the survival curves. […]

CT26 colon carcinoma = experiment: CTLA-4 peptide vaccines in CT26-BALB/c tumor model
Procedure: (§1) 6-8 weeks old BALB/c mice were vaccinated with MVF-CTLA-4 (59), MVF-CTLA-4 (75), MVF-CTLA-4 (92) or MVF-CTLA-4 (130) for 3 weeks interval. 0.1 mg peptide cancer vaccine mixed with ISA 720 (1:1) used per mouse. Mice were boosted with the designed doses for every 3 weeks intervals. Blood was collected weekly for monitoring antibody titers.
After 2 weeks of the third time immunization (3Y), mice were challenged with 10^5 per mouse CT26 (FIG. 3A). After tumor challenge, the positive control group, we treat the mice with anti-mouse CTLA-4 antibody (clone 9H10) twice a week for up to three weeks, and the negative control group was treated with PBS. Tumor volume was calculated as: Tumor volume (LWW)=(Length×Width×Width)/2. Mean value of tumor growths in BALB/c mice were vaccinated with MVF-CTLA-4 (59), MVF-CTLA-4 (75), MVF-CTLA-4 (92) or MVF-CTLA-4 (130), PBS as negative control and anti-mouse CTLA-4 antibody (clone 9H10) as positive control. […] Individual mouse CT26 tumor growths in each group of mice were vaccinated with MVF-CTLA-4 (59), MVF-CTLA-4 (75), MVF-CTLA-4 (92) or MVF-CTLA-4 (130), PBS as negative control and anti-mouse CTLA-4 antibody (clone 9H10) as positive control (FIG. 3C).
(§2) Mice challenged with tumor cells were monitored at least twice per week and tumor sizes were measured by calipers. Formula: Volume (LWW)=(Length×Width×Width)/2 was used to calculate tumor volumes. […] Data statistical analysis was performed by GraphPad Prism 8.1.2 (GraphPad Software, Inc. San Diego, CA, USA) and the indicated statistical analysis. One-way analysis of variance (one-way ANOVA) and followed by the Tukey's multiple comparisons test were used to compare data in multiple groups or data between groups in multiple groups. And the two-way ANOVA was used to analysis the whole curves comparison. The Log-rank (Mantel-Cox) test was use to compare the survival curves. P value or adjusted p value less than 0.05 was accepted as statistically significant different.

4T1 breast cancer cells = experiment: CTLA-4 peptide vaccines in 4T1-BALB/c tumor model; details: for survival versus PBS group (Log-rank test): 4T1
Procedure: 6-8 weeks old BALB/c mice were vaccinated with MVF-CTLA-4 (59), MVF-CTLA-4 (75), MVF-CTLA-4 (92) or MVF-CTLA-4 (130) for 3 weeks interval. 0.1 mg peptide cancer vaccine mixed with ISA 720 (1:1) used per mouse. Mice were boosted with the designed doses for every 3 weeks intervals. Blood was collected weekly for monitoring antibody titers. After 2 weeks of the third time immunization (3Y), mice were challenged with 10^5 per mouse 4T1 (FIG. 4A). After tumor challenge, the positive control group, we treat the mice with anti-mouse CTLA-4 antibody (clone 9H10) twice a week for up to three weeks, and the negative control group was treated with PBS. Tumor volume was calculated as: Tumor volume (LWW)=(Length×Width×Width)/2
as §2

D2F2 mammary tumor cells = experiment: CTLA-4 peptide vaccines in D2F2-BALB/c tumor model; details: for survival versus PBS group (Log-rank test): D2F2
Procedure: as §1, with “mouse (FIG. 5A).” for “mouse.”, “titers. After 2 weeks of the third time immunization (3Y), mice were challenged with 2×10^5 per mouse D2F2 mammary tumor cells.” for “titers.”
After tumor challenge, the positive control group, we treat the mice with anti-mouse CTLA-4 antibody (clone 9H10) twice a week for up to three weeks, and the negative control group was treated with PBS. Tumor volume was calculated as: Tumor volume (LWW)=(Length×Width×Width)/2.
as §2

Row | Molecule | tumor volume LWW versus PBS group (CT26 colon carcinoma; CT26, day 14) | tumor volume LWW versus PBS group (CT26 colon carcinoma; CT26, day 16) | tumor volume LWW versus PBS group (4T1 breast cancer cells; 4T1, day 14) | survival versus PBS group (Log-rank test) (D2F2 mammary tumor cells) | tumor volume LWW versus PBS group (D2F2 mammary tumor cells; D2F2, day 14) | tumor volume LWW versus PBS group (D2F2 mammary tumor cells; D2F2, day 16) | tumor volume LWW versus PBS group (D2F2 mammary tumor cells; D2F2, day 19) | tumor volume LWW versus PBS group (D2F2 mammary tumor cells; D2F2, day 21) | survival versus PBS group (Log-rank test) (4T1 breast cancer cells) | tumor volume LWW versus PBS group (4T1 breast cancer cells; 4T1, day 16) | further results
1 | H2N-YIQTGNGIGLYYPPPYMLEVK-CONH2 (H-[dY][dI][dQ][dT]G[dN]G[dI]G[dL][dY][dY][dP][dP][dP][dY][dM][dL][dE][dV][dK]-NH2; also: retro-inverso) [CTLA-4 (9) RIL (150-130)] | – | – | – | – | – | – | – | – | – | – | tumor volume, between groups comparison vs PBS (p or words) (CT26 tumor cells): < 0.05
2 | KLLSLIKGVIVHRLEGVE-GPSL-KVELMYPPPYYLGIGNGTQIY-CONH2 (KLLSLIKGVIVHRLEGVEGPSLKVELMYPPPYYLGIGNGTQIY-NH2; not fully specified; printed as KLLSLIKGVIVHRLEGVE-GPSL-KVELMYPPPYYLGIGNGTQIY-CONH2) [MVF-CTLA-4 (130)] | significant smaller tumor size | significant smaller tumor size | significant smaller tumor size | significant different longer survival | significantly smaller tumor size | significantly smaller tumor size | significantly smaller tumor size | significantly smaller tumor size | – | – | tumor volume LWW versus PBS group (CT26 colon carcinoma; CT26, day 14, listed as CTLA-4 (130)): significantly smaller tumor size; tumor volume LWW versus PBS group (CT26 colon carcinoma; CT26, day 16, listed as CTLA-4 (130)): significantly smaller tumor size; tumor volume LWW versus PBS group (4T1 breast cancer cells; 4T1, day 14, listed as CTLA-4 (130)): significantly smaller tumor size
3 | KLLSLIKGVIVHRLEGVEGPSLEYASPGKATEVRVTVLRQA-CONH2 (KLLSLIKGVIVHRLEGVEGPSLEYASPGKATEVRVTVLRQA-NH2; not fully specified; printed as KLLSLIKGVIVHRLEGVEGPSLEYASPGKATEVRVTVLRQA-CONH2) [MVF-CTLA-4 (59)] | significant smaller tumor size | significant smaller tumor size | significant smaller tumor size | significant different longer survival | significantly smaller tumor size | significantly smaller tumor size | significantly smaller tumor size | significantly smaller tumor size | significant longer survival | significant smaller tumor size | tumor volume LWW versus PBS group (CT26 colon carcinoma; CT26, day 14, listed as CTLA-4 (59)): significantly smaller tumor size; tumor volume LWW versus PBS group (CT26 colon carcinoma; CT26, day 16, listed as CTLA-4 (59)): significantly smaller tumor size; tumor volume LWW versus PBS group (4T1 breast cancer cells; 4T1, day 14, listed as CTLA-4 (59)): significantly smaller tumor size; tumor volume LWW versus PBS group (4T1 breast cancer cells; 4T1, day 16, listed as CTLA-4 (59)): significantly smaller tumor size
4 | KLLSLIKGVIVHRLEGVEGPSLRQADSQVTEVCAATYMMG-CONH2 (KLLSLIKGVIVHRLEGVEGPSLRQADSQVTEVCAATYMMG-NH2; not fully specified; printed as KLLSLIKGVIVHRLEGVEGPSLRQADSQVTEVCAATYMMG-CONH2) [MVF-CTLA-4 (75)] | – | – | significant smaller tumor size | – | significantly smaller tumor size | significantly smaller tumor size | significantly smaller tumor size | significantly smaller tumor size | significant longer survival | significant smaller tumor size | tumor volume LWW versus PBS group (4T1 breast cancer cells; 4T1, day 14, listed as CTLA-4 (75)): significantly smaller tumor size; tumor volume LWW versus PBS group (4T1 breast cancer cells; 4T1, day 16, listed as CTLA-4 (75)): significantly smaller tumor size
5 | KLLSLIKGVIVHRLEGVEGPSLGNELTFLDDSICTGTSSGNQVNFHMSVVRARRNDSGTYL-CONH2 (not fully specified; printed as KLLSLIKGVIVHRLEGVEGPSLGNELTFLDDSICTGTSSGNQVNFHMSVVRARRNDSGTYL-CONH2) KLLSLIKGVIVHRLEGVEGPSLGNELTFLDDSICTGTSSGNQVNFHMSVVRARRNDSGTYL-NH2 | significant smaller tumor size | significant smaller tumor size | – | – | without difference | significantly smaller tumor size | significantly smaller tumor size | significantly smaller tumor size | – | significant smaller tumor size | tumor volume LWW versus PBS group (CT26 colon carcinoma; CT26, day 14, listed as CTLA-4 (92)): significantly smaller tumor size; tumor volume LWW versus PBS group (CT26 colon carcinoma; CT26, day 16, listed as CTLA-4 (92)): significantly smaller tumor size; tumor volume LWW versus PBS group (4T1 breast cancer cells; 4T1, day 16, listed as CTLA-4 (92)): significantly smaller tumor size
